For this series, the system named is CCRIS mutagenicity, Ames/micronucleus/aberration tests. Description: CCRIS mutagenicity studies.
The mark [1] stands for this setting: Test System: AMES SALMONELLA TYPHIMURIUM, Strain/Indicator: TA100, Metabolic Activation: NONE, Method: STANDARD PLATE.
Where [2] appears, read: Test System: AMES SALMONELLA TYPHIMURIUM, Strain/Indicator: TA1535, Metabolic Activation: HAMSTER, LIVER, S-9, AROCLOR 1254, Method: STANDARD PLATE.
Where [3] appears, read: Test System: AMES SALMONELLA TYPHIMURIUM, Strain/Indicator: TA1535, Metabolic Activation: NONE, Method: STANDARD PLATE.
Where [4] appears, read: Test System: AMES SALMONELLA TYPHIMURIUM, Strain/Indicator: TA1538, Metabolic Activation: RAT, LIVER, S-9, AROCLOR 1254, Method: STANDARD PLATE.
[5] abbreviates: Test System: E. COLI B, Strain/Indicator: H/R30R, Metabolic Activation: NONE.
Where [6] appears, read: Test System: E. COLI B, Strain/Indicator: HS30R, Metabolic Activation: NONE.

Structures are written as SMILES. Calls of active or inactive are those of the source. How the calls were made is not given here.

For the molecule `CN(C)C(=O)Oc1ccc[n+](C)c1`, the mutagenic call reads like this: (Test System: AMES SALMONELLA TYPHIMURIUM, Strain/Indicator: TA98, Metabolic Activation: HAMSTER, LIVER, S-9, AROCLOR 1254, Method: STANDARD PLATE) “inactive; negative”; (Test System: AMES SALMONELLA TYPHIMURIUM, Strain/Indicator: TA98, Metabolic Activation: NONE, Method: STANDARD PLATE) “inactive; negative”; (Test System: AMES SALMONELLA TYPHIMURIUM, Strain/Indicator: TA98, Metabolic Activation: RAT, LIVER, S-9, AROCLOR 1254, Method: STANDARD PLATE) “inactive; negative”; (Test System: AMES SALMONELLA TYPHIMURIUM, Strain/Indicator: TA100, Metabolic Activation: HAMSTER, LIVER, S-9, AROCLOR 1254, Method: STANDARD PLATE) “inactive; negative”; under setting [1], “inactive; negative”; (Test System: AMES SALMONELLA TYPHIMURIUM, Strain/Indicator: TA100, Metabolic Activation: RAT, LIVER, S-9, AROCLOR 1254, Method: STANDARD PLATE) “inactive; negative”. Besides, the mutagenic call runs as follows: under setting [2], “inactive; negative”; under setting [3], “inactive; negative”; (Test System: AMES SALMONELLA TYPHIMURIUM, Strain/Indicator: TA1535, Metabolic Activation: RAT, LIVER, S-9, AROCLOR 1254, Method: STANDARD PLATE) “inactive; negative”; (Test System: AMES SALMONELLA TYPHIMURIUM, Strain/Indicator: TA1537, Metabolic Activation: HAMSTER, LIVER, S-9, AROCLOR 1254, Method: STANDARD PLATE) “inactive; negative”; (Test System: AMES SALMONELLA TYPHIMURIUM, Strain/Indicator: TA1537, Metabolic Activation: NONE, Method: STANDARD PLATE) “inactive; negative”; (Test System: AMES SALMONELLA TYPHIMURIUM, Strain/Indicator: TA1537, Metabolic Activation: RAT, LIVER, S-9, AROCLOR 1254, Method: STANDARD PLATE) “inactive; negative”. The mutagenic call is, setting by setting: (Test System: AMES SALMONELLA TYPHIMURIUM, Strain/Indicator: TA1538, Metabolic Activation: HAMSTER, LIVER, S-9, AROCLOR 1254, Method: STANDARD PLATE) “inactive; negative”; (Test System: AMES SALMONELLA TYPHIMURIUM, Strain/Indicator: TA1538, Metabolic Activation: NONE, Method: STANDARD PLATE) “inactive; negative”; under setting [4], “inactive; negative”; (Test System: MOUSE LYMPHOMA, Strain/Indicator: L5178Y (TK+/TK-), Metabolic Activation: NONE, Method: SUSPENSION/PLATE) “inactive; negative. reevaluation of results: negative”; (Test System: MOUSE LYMPHOMA, Strain/Indicator: L5178Y (TK+/TK-), Metabolic Activation: RAT, LIVER, S-9, AROCLOR 1254, Method: SUSPENSION/PLATE) “active; positive. reevaluation of results: equivocal”.

`Oc1ccc2cccnc2c1`: the mutagenic call runs as follows: under setting [1], “inactive; negative”; (Test System: AMES SALMONELLA TYPHIMURIUM, Strain/Indicator: TA100, Metabolic Activation: RAT, LIVER, S-9, AROCLOR 1254 (10% OR 20%), Method: STANDARD PLATE) “inactive; negative”.

`C=CCN1CCC=C2c3nc(NC(C)=O)sc3CCC21` (stereo not drawn): under setting [4], the mutagenic call was “inactive; negative”.

With `NC(=O)N(CC(=O)O)N=O`, the mutagenic call runs as follows: under setting [5], “active; positive”; under setting [6], “active; positive”.

As to `Nc1ccc2c3c(cccc13)C(=O)c1ccccc1-2`, for the setting “End Point: In vivo micronucleus, Test System: lacZ mutant frequency in liver, lung, and bone marrow cells, Species: Mouse, Strain/Sex: Big Blue (BALB/c x DBA2)/Male, Route: Oral”, the mutagenic call is “active; positive in liver and bone marrow”.

In the case of `CCCN(N=O)C(N)=O`, the mutagenic call runs as follows: under setting [3], “active; positive”; (Test System: CHINESE HAMSTER V-79, Strain/Indicator: V-79/6-THIOGUANINE, Metabolic Activation: NONE, Method: FLASK ASSAY) “active; positive”; under setting [5], “active; positive”; under setting [6], “active; positive”; (Test System: E. COLI, Strain/Indicator: WP2, Metabolic Activation: NONE, Method: STANDARD PLATE) “active; positive”; (Test System: E. COLI, Strain/Indicator: WP2 UVRA, Metabolic Activation: NONE, Method: STANDARD PLATE) “active; positive”.

As to `Cc1cccc(CN(C)N=O)c1`, the mutagenic call reads like this: under setting [2], “active; positive”; under setting [3], “inactive; negative”.

Turning to `CN=NNC`, under setting [3], the mutagenic call was “active; positive”.

On to `O=[N+]([O-])C(Br)Br`, for which the mutagenic call is, setting by setting: (Test System: Ames Salmonella typhimurium, Strain/Indicator: RSJ100, Metabolic Activation: None, Method: Standard plate) “inactive; negative”; (Test System: Ames Salmonella typhimurium, Strain/Indicator: RSJ100, Metabolic Activation: Rat, Liver, S-9, Aroclor, Method: Standard plate) “inactive; negative”; (Test System: Ames Salmonella typhimurium, Strain/Indicator: TA98, Metabolic Activation: None, Method: Standard plate) “inactive; negative”; (Test System: Ames Salmonella typhimurium, Strain/Indicator: TA98, Metabolic Activation: Rat, Liver, S-9, Aroclor, Method: Standard plate) “inactive; negative”; (Test System: Ames Salmonella typhimurium, Strain/Indicator: TA100, Metabolic Activation: None, Method: Standard plate) “active; positive”; (Test System: Ames Salmonella typhimurium, Strain/Indicator: TA100, Metabolic Activation: Rat, Liver, S-9, Aroclor, Method: Standard plate) “active; positive”. For the same molecule, the mutagenic call runs as follows: (Test System: Ames Salmonella typhimurium, Strain/Indicator: TA104, Metabolic Activation: None, Method: Standard plate) “inactive; negative”; (Test System: Ames Salmonella typhimurium, Strain/Indicator: TA104, Metabolic Activation: Rat, Liver, S-9, Aroclor, Method: Standard plate) “inactive; negative”; (Test System: Ames Salmonella typhimurium, Strain/Indicator: TPT100, Metabolic Activation: None, Method: Standard plate) “inactive; negative”.

In the case of `CO[C@H](C)[C@](O)(C(=O)OCC1=CCN2CC[C@H](O)[C@@H]12)C(C)C`, the mutagenic call (Test System: AMES SALMONELLA TYPHIMURIUM, Strain/Indicator: TA100, Metabolic Activation: HAMSTER, LIVER, S-9, PCB, Method: PREINCUBATION) was “inactive; negative; dose related trend; by authors criteria results are positive” and the mutagenic call (Test System: AMES SALMONELLA TYPHIMURIUM, Strain/Indicator: TA100, Metabolic Activation: RAT, LIVER, S-9, PCB, Method: PREINCUBATION) is “inactive; negative; dose related trend; by authors criteria results are positive”.

(Values after PubChem BioAssay AID1259407 (Chemical Carcinogenesis Research Information System (CCRIS), 2018).)
